Measured values as given in patent publication US20240383869A1, “ARYLACETYL INHIBITORS OF TG2 AND USES THEREOF” (UNIVERSITY OF OTTAWA, priority 2021, published 2024).
Where two headings read alike, the source gives them in different places.

Tests used:
hTG2 = target: T1, hTG2 (Homo sapiens, UniProt P21980); experiment: biochemical; settings: for inactivation of TG2: isozyme selectivity, normalized [I]/α; for Ki: read-out: KI (converted)
T1 sequence (P21980 1-687): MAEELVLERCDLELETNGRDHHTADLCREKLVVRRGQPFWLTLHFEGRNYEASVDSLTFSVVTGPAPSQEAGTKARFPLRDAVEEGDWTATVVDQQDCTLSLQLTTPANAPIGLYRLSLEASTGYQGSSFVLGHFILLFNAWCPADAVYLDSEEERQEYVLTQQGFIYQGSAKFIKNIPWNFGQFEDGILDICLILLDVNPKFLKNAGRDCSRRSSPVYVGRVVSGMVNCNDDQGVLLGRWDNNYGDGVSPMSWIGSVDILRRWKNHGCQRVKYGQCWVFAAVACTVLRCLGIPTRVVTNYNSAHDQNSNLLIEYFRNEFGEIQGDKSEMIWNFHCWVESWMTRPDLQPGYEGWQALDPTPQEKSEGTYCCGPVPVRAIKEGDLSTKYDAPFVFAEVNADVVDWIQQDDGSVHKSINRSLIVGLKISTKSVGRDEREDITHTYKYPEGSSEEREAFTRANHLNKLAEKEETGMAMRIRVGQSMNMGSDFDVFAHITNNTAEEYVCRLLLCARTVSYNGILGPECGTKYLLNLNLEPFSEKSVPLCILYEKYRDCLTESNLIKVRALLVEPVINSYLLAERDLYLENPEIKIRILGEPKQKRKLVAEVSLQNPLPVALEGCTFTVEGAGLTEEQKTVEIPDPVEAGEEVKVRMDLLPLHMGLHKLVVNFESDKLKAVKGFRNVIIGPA
Protocol: The ability of the compounds to inhibit TG2 transamidase activity and the kinetics of TG2 inhibition were investigated using a colorimetric activity assay, as follows:
Colorimetric transamidase activity assay. The activities of hTG1, hTG2 and hTG6 were measured via a colorimetric assay using the chromogenic substrate Cbz-Glu(γ-p-nitrophenyl ester)Gly (AL5), as described (Leblanc, A. et al., “Kinetic studies of guinea pig liver transglutaminase reveal a general-base-catalyzed deacylation mechanism.” Biochemistry 2001, 40 (28), 8335-8342). Assays were conducted at 25° C. in 50 mM MOPS buffer (pH 6.95) containing 7.5 mM CaCl2. […] The substrate AL5 was prepared in as a stock solution in DMSO such that the final concentration of this co-solvent was constant at 2.5% v/v. Stock solutions of the inhibitors were made in water ranging in concentration from 100-500 μM. The reaction was initiated with the addition of enzyme, 0.10 μM hTG1, 0.25 μM hTG2 (4.6 mU/mL) or 0.32 μM hTG6. Formation of hydrolysis product, p-nitrophenolate (pNP), was monitored at 405 nm in a polystyrene 96-well microplate using a BioTek Synergy 4 plate reader. The observed first-order rate constants of inactivation (kobs) were determined via non-linear regression fit to a mono-exponential model (Eqn 1) of absorbance versus time curves. These rate constants (kobs) were in turn fit to a saturation kinetics model (Eqn 2), by non-linear regression, providing the kinetic parameters kinact and KI, as previously described by Stone and Hofsteenge (Stone, S. R. and Hofsteenge, J., “Specificity of activated human protein C.” Biochem. J. 1985, 230 (2), 497-502). […] Experiments were completed in triplicate at minimum.
Fitting of this time-dependent inactivation to a monoexponential equation gave first-order rate constants, kobs. […] In some cases, the kinetic data were fitted to a linear double reciprocal equation.

FXIIIa = target: T2, FXIIIa (Homo sapiens, UniProt P00488); experiment: Fluorescence isopeptidase activity assay (A101 FRET-quenched probe), isozyme selectivity; assay type: biochemical; settings: normalized [I]/α
T2 construct: purchased Zedira
T2 sequence (P00488 39-732 limits assumed): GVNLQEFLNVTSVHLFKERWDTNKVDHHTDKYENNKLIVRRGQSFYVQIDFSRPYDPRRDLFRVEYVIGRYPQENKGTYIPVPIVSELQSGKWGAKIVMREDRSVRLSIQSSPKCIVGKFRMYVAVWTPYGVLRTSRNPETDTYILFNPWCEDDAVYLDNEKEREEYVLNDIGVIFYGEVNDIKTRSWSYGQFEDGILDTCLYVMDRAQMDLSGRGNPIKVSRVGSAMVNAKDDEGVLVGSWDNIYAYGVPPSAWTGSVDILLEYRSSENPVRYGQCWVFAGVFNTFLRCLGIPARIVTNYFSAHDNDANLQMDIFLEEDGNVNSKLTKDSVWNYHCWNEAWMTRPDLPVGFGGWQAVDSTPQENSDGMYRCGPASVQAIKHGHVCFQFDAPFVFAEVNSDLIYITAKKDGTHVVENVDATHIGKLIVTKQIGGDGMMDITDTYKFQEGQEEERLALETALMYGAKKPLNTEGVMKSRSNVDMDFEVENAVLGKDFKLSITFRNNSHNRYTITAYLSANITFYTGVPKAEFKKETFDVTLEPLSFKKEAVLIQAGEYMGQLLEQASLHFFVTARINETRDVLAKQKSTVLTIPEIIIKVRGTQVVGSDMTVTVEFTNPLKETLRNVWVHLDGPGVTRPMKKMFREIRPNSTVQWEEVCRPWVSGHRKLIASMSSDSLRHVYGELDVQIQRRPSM
Protocol: Fluorescence isopeptidase activity assay. The isopeptidase activity of pre-activated TG3a and FXIIIa (purchased from Zedira) was measured via a fluorescence-based assay as described (Kirily, R. et al., “Isopeptidase activity of human transglutaminase 2: disconnection from transamidation and characterization by kinetic parameters.” Amino Acids 2016, 48 (1), 31-40) using the commercially available peptidic FRET quenched probe A101. Briefly, the final concentration in the reaction mixture contained 50 mM Tris (pH 7.0), 10 mM CaCl2, 100 mM NaCl, 2.8 mM TCEP, 50 μM A101 and 14 mM H-Gly-OMe. The reaction was monitored at 25° C. using a BioTek Synergy 4 plate reader (Ex/Em: 318/413 nm). Enzymatic inhibition assays were run under Kitz and Wilson conditions (Kitz, R. and Wilson, I. B., “Esters of methanesulfonic acid as irreversible inhibitors of acetylcholinesterase.” J. Biol. Chem. 1962, 237, 3245-49), which were established for TG3a and FXIIIa at a substrate (A101) concentration of 50 μM using enzyme concentrations of 0.17 μM and 0.11 μM for TG3a and FXIIIa, respectively.

[1] = fit to saturation kinetics model, 25° C., pH 6.95, 100 μM AL5

Compound | inactivation of TG2 (hTG2) | kinact/KI (hTG2; pH 6.95) [M⁻¹ s⁻¹] | inhibition of FXIIIa (FXIIIa) | Ki (hTG2; [1]) [µM] | kinact (hTG2; fit to saturation kinetics model, 25° C., pH 6.95, 100 μM AL5, read-out: kinact (converted)) [s⁻¹] | kinact/KI (hTG2; fit to saturation kinetics model, 25° C., pH 6.95, 100 μM AL5, read-out: kinact/KI (converted)) [M⁻¹ s⁻¹]
C=CC(=O)NCCCC[C@H](NC(=O)OCc1ccccc1)C(=O)N1CCN(C(=O)c2cccc3ccccc23)CC1 [AA9, reference compound] | inactivated TG2 almost completely, in less than five minutes | 4070 | none of these inhibitors showed any detectable inhibition | – | – | –
C=CC(=O)NCCCC[C@H](NC(=O)Cc1ccccc1F)C(=O)N1CCN(C(=O)c2cccc3ccccc23)CC1 [Inhibitor 72, (S)-N-(6-(4-(1-naphthoyl)piperazin-1-yl)-5-(2-(2-fluorophenyl)acetamido)-6-oxohexyl)acrylamide] | inactivated TG2 almost completely, in less than five minutes | – | none of these inhibitors showed any detectable inhibition | 1 ± 0.2 | – | –
C=CC(=O)NCCCC[C@H](NC(=O)Cc1ccccc1C)C(=O)N1CCN(C(=O)c2cccc3ccccc23)CC1 [Inhibitor 74, (S)-N-(6-(4-(1-naphthoyl)piperazin-1-yl)-5-(2-(2-methylphenyl)acetamido)-6-oxohexyl)acrylamide] | inactivated TG2 almost completely, in less than five minutes | – | none of these inhibitors showed any detectable inhibition | 6.1 ± 1.8 | 0.035 | 5870
